Test results reported in US10766882B2, “1,2-naphthoquinone based derivative and method of preparing the same” (YUNGJIN PHARM. CO., LTD., priority 2013, dated 2020).

Key:
NQO1 protein = NQO1 protein (Homo sapiens, UniProt P15559); test: NQO1 activity measurement (cytochrome C reduction); type: biochemical; conditions: 5 ng NQO1 protein, 200 μM NADH, 77 μM cytochrome C, 37° C., absorbance 550 nm for 10 minutes
Procedure: An enzyme reaction solution included 25 mM Tris/HCl (pH 7.4), 0.14% bovine serum albumin, 200 μM NADH, 77 μM cytochrome C, and 5 ng of NQO1 protein. Enzymatic reaction was initiated by adding NADH and performed at 37° C. In this regard, a reaction rate was measured by observing absorbance, which was increased due to reduction of cytochrome C, at 550 nm for 10 minutes and NQO1 activity was represented as an amount of reduced cytochrome C [nmol cytochrome C reduced/min/μg protein].
Extinction coefficient for cytochrome C:21.1 mmol/L/cm=21.1 μmol/ml/cm

Cells = test: Measurement of lactate change amount within cells; type: cell-based; conditions: PCA extract of cells, lactate measured from supernatant (Megazyme, K-LATE)
Procedure: Cells were treated with 400 μl of 6% PCA, and then collected and extracted. Centrifugation (13,000 rpm, 10 min) was performed. A precipitate was dried using a Speed-Vac and then a weight of dried precipitate was measured. A supernatant was neutralized using 400 μl of 1 M KOH and a final volume thereof was adjusted to 1 ml using 0.33 M KH2PO4/K2HPO4, pH 7.5. Centrifugation (13,000 rpm, 10 min) was performed and the amount of lactate was measured from a supernatant (Megazyme, K-LATE).

C57BL/6J Lep ob/ob mice = test: Weight loss effects in obese mice (ob/ob); type: in vivo; conditions: vs 0.1% SLS controls
Procedure: 10 week-old C57BL/6J Lep ob/ob mice having genetic obesity characteristics available from ORIENTBIO were prepared. Two mice were raised in each polycarbonate breeding cage (200 W×260 L×130H (mm), Three-shine) in which temperature was 20 to 24° C., relative humidity was 35 to 65%, illuminance was 150 to 300 lux, night and day were 12 hours, and exhaust was performed at 10 to 15 air changes per hour. As a feed, low fat diet (11.9 kcal % fat, 5053, Labdiet) manufactured by ORIENTBIO was used. The feed was contained in a feeder and free intake was allowed. As drinking water, water, which was contained in a 250 mL polycarbonate based bottle, purified through a filter and a sterilizer was used and free intake was allowed.
The compound according to Example 1 synthesized in the present invention was orally administered to three C57BL/6J Lep ob/ob mice in amounts of 40 mg/kg, 80 mg/kg, and 120 mg/kg, respectively, once every day for two weeks. For administration, a disposable syringe fitted with a sonde for oral administration was used and 10 ml/kg of the compound was orally administered into the stomach. As controls, three C57BL/6J Lep ob/ob mice were administered 0.1% sodium lauryl sulfate (SLS) in an amount of 120 mg/kg in the same manner as described above. After administration, a time-dependent weight increase ratio, weight change, and intake amount were measured and results are illustrated in FIG. 1 below.
Weights of the experimental animals were measured immediately before administration of a test material and seven times a week from an administration initiation day to a test termination day. Increased total weights were calculated by subtracting weights measured on an experiment initiation day from weights measured one day before an experiment termination day. Food intake amounts were calculated by measuring feed supply amounts and remaining amounts twice a week from an initiation day of test material administration to a test termination day for each individual. […]
(§1) Experiments were performed under the same conditions as in Experimental Example 3-1 except that 15 week-old C57BL/6J Lep ob/ob mice having genetic obesity characteristics available from ORIENTBIO were prepared, the compounds according to Examples 5 and 6 were administered to three C57BL/6J Lep ob/ob mice in an amount of 150 mg/kg, 150 mg/kg of 0.1% SLS was administered to each of three C57BL/6J Lep ob/ob mice as controls, and experiments were performed for a total of one week. Weight increase ratios, weight change, and intake amounts depending on administration time were measured and results are illustrated in FIG. 5 below.
as §1, with “that 10” for “that 15”, “Examples 8, 9,” for “Examples 5”, “and 12” for “and 6”, “FIG. 6” for “FIG. 5”
Experiments were performed under the same conditions as in Experimental Example 3-1 except that 6 week-old C57BL/6J Lep ob/ob mice having genetic obesity characteristics available from ORIENTBIO were prepared, the compounds according to Examples 17, 18, 22, and 23 were administered to three C57BL/6J Lep ob/ob mice in an amount of 100 mg/kg, 100 mg/kg of 0.1% SLS was administered to each of three C57BL/6J Lep ob/ob mice as controls, and experiments were performed for a total of one week. Weight increase ratios, weight change, and intake amounts depending on administration time were measured and results are illustrated in FIG. 10 below. […]

[1] = Exp. Ex. 3-7, FIG. 10: 6 week-old ob/ob mice, 100 mg/kg oral, one week
[2] = Exp. Ex. 3-3, FIG. 3: 11 week-old ob/ob mice, 100 mg/kg oral, total of 6 days
[3] = Exp. Ex. 3-6, FIG. 6: 10 week-old ob/ob mice, 150 mg/kg oral, one week
[4] = Exp. Ex. 3-11, FIG. 14: 6.5 week-old ob/ob mice, 100 mg/kg oral, one week

Chain of NQO1 protein (P15559 whole entry, species assumed): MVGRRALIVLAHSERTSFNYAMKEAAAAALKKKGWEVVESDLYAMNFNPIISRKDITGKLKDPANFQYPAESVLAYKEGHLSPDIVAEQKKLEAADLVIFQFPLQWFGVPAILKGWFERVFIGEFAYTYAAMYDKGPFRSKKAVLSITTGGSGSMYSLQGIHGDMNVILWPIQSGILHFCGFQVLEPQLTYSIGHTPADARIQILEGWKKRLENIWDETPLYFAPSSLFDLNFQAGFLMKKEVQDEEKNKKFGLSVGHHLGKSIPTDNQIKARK

CC(C)c1nc2c([nH]1)C(=O)C(=O)c1cc(Cl)ccc1-2 [Example 17]
NQO1 activity (5 μM, [nmol cytochrome C reduced/min/μg protein]) (NQO1 protein): 206.9 nmol cytochrome C reduced/min/μg protein | Lactate change amount within cells (nmol/mg cell) (Cells): 6.0 nmol/mg cell | intake amount (C57BL/6J Lep ob/ob mice; [1]): significantly decreased in some sections | weight change (C57BL/6J Lep ob/ob mice; [1]): significantly decreased in some sections | weight increase ratio (C57BL/6J Lep ob/ob mice; [1]): significantly decreased in some sections

CC(C)c1nc2c(n1C)-c1ccccc1C(=O)C2=O [Example 3, 2-isopropyl-1-methyl-1H-naphtho[2,1-d]imidazole-4,5-dione]
NQO1 activity (5 μM, [nmol cytochrome C reduced/min/μg protein]) (NQO1 protein): 139 nmol cytochrome C reduced/min/μg protein | Lactate change amount within cells (nmol/mg cell) (Cells): 11.3 nmol/mg cell | intake amount (C57BL/6J Lep ob/ob mice; [2]): significantly decreased | weight increase ratio (C57BL/6J Lep ob/ob mice; [2]): significantly decreased

CC(C)Cc1nc2c([nH]1)C(=O)C(=O)c1ccccc1-2 [Example 8]
NQO1 activity (5 μM, [nmol cytochrome C reduced/min/μg protein]) (NQO1 protein): 213 nmol cytochrome C reduced/min/μg protein | Lactate change amount within cells (nmol/mg cell) (Cells): 10.0 nmol/mg cell | intake amount (C57BL/6J Lep ob/ob mice; [3]): significantly decreased | weight change (C57BL/6J Lep ob/ob mice; [3]): significantly decreased | weight increase ratio (C57BL/6J Lep ob/ob mice; [3]): significantly decreased

CCc1nc2c(n1C)C(=O)C(=O)c1ccccc1-2 [Example 38, 2-ethyl-3-methyl-3H-naphtho[2,1-d]imidazole-4,5-dione]
NQO1 activity (5 μM, [nmol cytochrome C reduced/min/μg protein]) (NQO1 protein): 142.1 nmol cytochrome C reduced/min/μg protein | Lactate change amount within cells (nmol/mg cell) (Cells): 5.2 nmol/mg cell | intake amount (C57BL/6J Lep ob/ob mice; [4]): significantly decreased in some sections | weight change (C57BL/6J Lep ob/ob mice; [4]): significantly decreased in some sections | weight increase ratio (C57BL/6J Lep ob/ob mice; [4]): significantly decreased in some sections

O=C1C(=O)c2[nH]c(C3CC3)nc2-c2ccccc21 [Example 12]
NQO1 activity (5 μM, [nmol cytochrome C reduced/min/μg protein]) (NQO1 protein): 184 nmol cytochrome C reduced/min/μg protein | Lactate change amount within cells (nmol/mg cell) (Cells): 7.0 nmol/mg cell | intake amount (C57BL/6J Lep ob/ob mice; [3]): significantly decreased | weight change (C57BL/6J Lep ob/ob mice; [3]): significantly decreased | weight increase ratio (C57BL/6J Lep ob/ob mice; [3]): significantly decreased

CC(C)c1nc2c([nH]1)C(=O)C(=O)c1cc(F)ccc1-2 [Example 22]
NQO1 activity (5 μM, [nmol cytochrome C reduced/min/μg protein]) (NQO1 protein): 206.1 nmol cytochrome C reduced/min/μg protein | Lactate change amount within cells (nmol/mg cell) (Cells): 7.3 nmol/mg cell | intake amount (C57BL/6J Lep ob/ob mice; [1]): significantly decreased in some sections | weight change (C57BL/6J Lep ob/ob mice; [1]): significantly decreased in some sections | weight increase ratio (C57BL/6J Lep ob/ob mice; [1]): significantly decreased in some sections

CC(C)(C)Cc1nc2c([nH]1)C(=O)C(=O)c1ccccc1-2 [Example 15, 2-neopentyl-1H-naphtho[2,1-d]imidazole-4,5-dione]
NQO1 activity (5 μM, [nmol cytochrome C reduced/min/μg protein]) (NQO1 protein): 183.3 nmol cytochrome C reduced/min/μg protein | Lactate change amount within cells (nmol/mg cell) (Cells): 7.2 nmol/mg cell

O=C1C(=O)c2[nH]c(COc3ccccc3)nc2-c2ccccc21 [Example 78]
NQO1 activity (5 μM, [nmol cytochrome C reduced/min/μg protein]) (NQO1 protein): 81.7 nmol cytochrome C reduced/min/μg protein | Lactate change amount within cells (nmol/mg cell) (Cells): 8.0 nmol/mg cell

CCc1nc2c(n1CC(F)(F)F)C(=O)C(=O)c1ccccc1-2 [Example 40, 2-ethyl-3-(2,2,2-trifluoroethyl)-3H-naphtho[2,1-d]imidazole-4,5-dione]
NQO1 activity (5 μM, [nmol cytochrome C reduced/min/μg protein]) (NQO1 protein): 192.9 nmol cytochrome C reduced/min/μg protein | Lactate change amount within cells (nmol/mg cell) (Cells): 9.7 nmol/mg cell

CC(C)(C)c1nc2c(n1Cc1ccccc1)C(=O)C(=O)c1cccnc1-2 [Example 46, 3-benzyl-2-tert-butyl-3H-imidazo[4,5-h]quinoline-4,5-dione]
NQO1 activity (5 μM, [nmol cytochrome C reduced/min/μg protein]) (NQO1 protein): 160.1 nmol cytochrome C reduced/min/μg protein | Lactate change amount within cells (nmol/mg cell) (Cells): 8.9 nmol/mg cell

CC(C)C(=O)n1c(C(C)C)nc2c1C(=O)C(=O)c1ccccc1-2 [Example 28]
NQO1 activity (5 μM, [nmol cytochrome C reduced/min/μg protein]) (NQO1 protein): 177.2 nmol cytochrome C reduced/min/μg protein | Lactate change amount within cells (nmol/mg cell) (Cells): 6.8 nmol/mg cell

O=C1C(=O)c2[nH]c(Cc3ccccc3)nc2-c2ccccc21 [Example 11]
NQO1 activity (5 μM, [nmol cytochrome C reduced/min/μg protein]) (NQO1 protein): 178 nmol cytochrome C reduced/min/μg protein | Lactate change amount within cells (nmol/mg cell) (Cells): 7.2 nmol/mg cell

CCc1nc2c([nH]1)C(=O)C(=O)c1cc(NCc3ccc(F)cc3)ccc1-2 [Example 47]
NQO1 activity (5 μM, [nmol cytochrome C reduced/min/μg protein]) (NQO1 protein): 41.0 nmol cytochrome C reduced/min/μg protein | Lactate change amount within cells (nmol/mg cell) (Cells): 5.9 nmol/mg cell

CC(C)(C)c1nc2c([nH]1)C(=O)C(=O)c1cccnc1-2 [Example 27]
NQO1 activity (5 μM, [nmol cytochrome C reduced/min/μg protein]) (NQO1 protein): 207.4 nmol cytochrome C reduced/min/μg protein | Lactate change amount within cells (nmol/mg cell) (Cells): 9.6 nmol/mg cell

CC(C)c1nc2c(n1Cc1cccc(Cl)c1)C(=O)C(=O)c1ccccc1-2 [Example 34]
NQO1 activity (5 μM, [nmol cytochrome C reduced/min/μg protein]) (NQO1 protein): 153.5 nmol cytochrome C reduced/min/μg protein | Lactate change amount within cells (nmol/mg cell) (Cells): 4.9 nmol/mg cell

CC(C)c1nc2c(n1C(=O)OCc1ccccc1)C(=O)C(=O)c1ccccc1-2 [Example 31]
NQO1 activity (5 μM, [nmol cytochrome C reduced/min/μg protein]) (NQO1 protein): 127.1 nmol cytochrome C reduced/min/μg protein | Lactate change amount within cells (nmol/mg cell) (Cells): 5.1 nmol/mg cell

CC(C)c1nc2c([nH]1)C(=O)C(=O)c1cc([N+](=O)[O-])ccc1-2 [Example 16]
NQO1 activity (5 μM, [nmol cytochrome C reduced/min/μg protein]) (NQO1 protein): 94.0 nmol cytochrome C reduced/min/μg protein | Lactate change amount within cells (nmol/mg cell) (Cells): 5.8 nmol/mg cell

O=C1C(=O)c2[nH]c(CNc3ccccc3)nc2-c2ccccc21 [Example 49]
NQO1 activity (5 μM, [nmol cytochrome C reduced/min/μg protein]) (NQO1 protein): 128.4 nmol cytochrome C reduced/min/μg protein | Lactate change amount within cells (nmol/mg cell) (Cells): 5.2 nmol/mg cell

CC(C)(C)OC(=O)N(Cc1nc2c([nH]1)C(=O)C(=O)c1ccccc1-2)c1ccccc1 [Example 48]
NQO1 activity (5 μM, [nmol cytochrome C reduced/min/μg protein]) (NQO1 protein): 59.8 nmol cytochrome C reduced/min/μg protein | Lactate change amount within cells (nmol/mg cell) (Cells): 5.1 nmol/mg cell

CCc1nc2c([nH]1)C(=O)C(=O)c1cc([N+](=O)[O-])ccc1-2 [Example 24]
NQO1 activity (5 μM, [nmol cytochrome C reduced/min/μg protein]) (NQO1 protein): 208.2 nmol cytochrome C reduced/min/μg protein | Lactate change amount within cells (nmol/mg cell) (Cells): 4.3 nmol/mg cell
